Assay results: US20060233711A1, “Method for treating conditions associated with fear memory” (priority 2005, published 2006)

Key:
AMPA receptors = details: cited from earlier work
[1] = tested on: EPSCs in LA neurons (thalamic input); experiment: Whole-cell patch-clamp recording of EPSCs in lateral amygdala neurons in slices; assay type: cell-based, mice
Description: Transverse slices ([…]) of the amygdala were transferred to a room temperature submerged recovery chamber with oxygenated (95% O2 and 5% CO2) ACSF solution as described above. After a one hour recovery, slices were placed in a recording chamber on the stage of an Axioskop 2FS microscope (Zeiss) equipped with infrared DIC optics for visualized whole-cell patch clamp recordings. Excitatory postsynaptic currents were recorded from cells in the lateral amygdala with an Axon 200B amplifier (Axon Instruments, Calif., USA). Electrical stimulations (200 μsec duration) were delivered by a bipolar tungsten stimulating electrode placed in the internal capsule (thalamic inputs) (Tsvetkov et al., 2004). EPSCs were induced by repetitive stimulations at 0.02-0.05 Hz and neurons were voltage clamped at −70 mV. In all experiments, the stimulus intensity was adjusted to produce synaptic responses with an amplitude of 70-100 pA. […] Access resistance was 15-30 M ? and monitored throughout the experiment. […]

KARs = details: SYM2206 at 100 μM; cited from earlier work
GluR5 = details: treated animals; cited from earlier work

Question: What does the source list for `CCCNC(=O)N1N=C(c2ccc(N)cc2)c2cc3c(cc2C1C)OCO3` (racemic) [SYM2206, (±)-4-(4-aminophenyl)-1,2-dihydro-1-methyl-2-propylcarbamoyl-6,7-methylenedioxyphthalazine]?
Answer: IC50 (AMPA receptors; AMPA receptors, read-out: half-maximal inhibitory concentration): 1 to 2 µM; inhibition of AMPA receptors (AMPA receptors; SYM2206 at 100 μM): maximal inhibition; effect on EPSCs ([1]; bath application of AP5 (50 μM) plus SYM2206 (100 μM), n=17, LA neurons): reduced, but did not completely block; inhibition of KARs (KARs): 20-30%

Question: With `N#Cc1cc2[nH]c(=O)c(=O)[nH]c2cc1[N+](=O)[O-]` [CNQX] as the molecule, how does the “effect on residual (SYM2206-insensitive) current” value ([1]; CNQX 20 μM, after AP5 plus SYM2206, n=5) read?
Answer: Its value is “completely blocked”.

Question: With `O=C(O)c1ccc(C[C@H]2CC[C@H]3CN[C@H](C(=O)O)C[C@H]3C2)cc1` [LY382884] as the molecule, how does the “behavioral responses to formalin and Complete Freund's adjuvant (CFA)” value (GluR5) read?
Answer: The value was “reduced”.
